Experiments:
SARS-CoV 3CLpro = SARS-CoV 3CLpro (Severe acute respiratory syndrome coronavirus, UniProt P0C6X7); experiment: biochemical
MERS-CoV 3CLpro = MERS-CoV 3CLpro (Middle East respiratory syndrome-related coronavirus, UniProt K9N7C7); experiment: biochemical
HCoV-229E 3CLpro = HCoV-229E 3CLpro (Human coronavirus 229E, UniProt P0C6X1); experiment: HCoV-229E 3CLpro inhibition assay (FRET); type: biochemical
SARS-CoV-2 3CLpro = SARS-CoV-2 3CLpro (Severe acute respiratory syndrome coronavirus 2, UniProt P0DTD1); experiment: biochemical

HCoV-229E 3CLpro, sequence (P0C6X1 2966-3267): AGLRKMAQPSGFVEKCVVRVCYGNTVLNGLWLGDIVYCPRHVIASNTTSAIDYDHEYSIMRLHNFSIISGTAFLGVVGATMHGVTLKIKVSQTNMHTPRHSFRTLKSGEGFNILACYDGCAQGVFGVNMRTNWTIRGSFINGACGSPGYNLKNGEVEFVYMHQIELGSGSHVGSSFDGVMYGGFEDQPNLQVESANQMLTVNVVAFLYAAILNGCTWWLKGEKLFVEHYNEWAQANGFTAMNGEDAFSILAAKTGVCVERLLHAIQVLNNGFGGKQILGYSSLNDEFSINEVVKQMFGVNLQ
MERS-CoV 3CLpro, sequence (K9N7C7 3248-3553): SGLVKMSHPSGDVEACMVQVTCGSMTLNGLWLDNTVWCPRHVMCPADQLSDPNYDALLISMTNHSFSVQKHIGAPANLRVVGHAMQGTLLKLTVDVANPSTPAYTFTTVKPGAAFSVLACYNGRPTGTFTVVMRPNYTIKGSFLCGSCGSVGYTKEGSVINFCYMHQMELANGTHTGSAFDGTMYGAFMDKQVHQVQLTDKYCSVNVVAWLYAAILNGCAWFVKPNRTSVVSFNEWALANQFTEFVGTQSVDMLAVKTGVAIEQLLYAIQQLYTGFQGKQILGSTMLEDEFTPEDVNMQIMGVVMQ

Compound	IC50 (SARS-CoV 3CLpro) [nM]	IC50 (MERS-CoV 3CLpro) [nM]	IC50 (HCoV-229E 3CLpro) [nM]	IC50 (SARS-CoV-2 3CLpro) [nM]
CC[C@H](C)[C@H](NC(=O)C(C)C)C(=O)N1C[C@@H]2CCC[C@@H]2[C@H]1C(=O)NN(C[C@@H]1CCNC1=O)C(=O)[C@H](F)Cl [Example 47, N-[(1S,2S)-1-[(3S,3aS,6aR)-3-[[[(2R)-2-chloro-2-fluoro-acetyl]-[[(3S)-2-oxopyrrolidin-3-yl]methyl]amino]carbamoyl]-3,3a,4,5,6,6a-hexahydro-1H-cyclopenta[c]pyrrole-2-carbonyl]-2-methyl-butyl]-2-methyl-propanamide]	12	76	26	7
CC[C@H](C)[C@H](NC(=O)C(F)(F)F)C(=O)N1C[C@@H]2CCC[C@@H]2[C@H]1C(=O)NN(C[C@@H]1CCNC1=O)C(=O)[C@H](F)Cl [Example 48, N-[(1S,2S)-1-[(3S,3aS,6aR)-3-[[[(2R)-2-chloro-2-fluoro-acetyl]-[[(3S)-2-oxopyrrolidin-3-yl]methyl]amino]carbamoyl]-3,3a,4,5,6,6a-hexahydro-1H-cyclopenta[c]pyrrole-2-carbonyl]-2-methyl-butyl]-2,2,2-trifluoro-acetamide]	12	56	22	12
CC[C@H](C)[C@H](NC(=O)C(Cl)Cl)C(=O)N1C[C@@H]2CCC[C@@H]2[C@H]1C(=O)NN(C[C@@H]1CCNC1=O)C(=O)[C@H](F)Cl [Example 49, N-[(1S,2S)-1-[(3S,3aS,6aR)-3-[[[(2R)-2-chloro-2-fluoro-acetyl]-[[(3S)-2-oxopyrrolidin-3-yl]methyl]amino]carbamoyl]-3,3a,4,5,6,6a-hexahydro-1H-cyclopenta[c]pyrrole-2-carbonyl]-2-methyl-butyl]-2,2-dichloro-acetamide]	13	96	33	7
CC[C@H](C)[C@H](NC(=O)C(F)F)C(=O)N1C[C@H]2[C@@H]([C@H]1C(=O)NN(C[C@@H]1CCNC1=O)C(=O)[C@H](F)Cl)C2(C)C [Example 51, N-[(1S,2S)-1-[(1R,2S,5S)-2-[[[(2R)-2-chloro-2-fluoro-acetyl]-[[(3S)-2-oxopyrrolidin-3-yl]methyl]amino]carbamoyl]-6,6-dimethyl-3-azabicyclo[3.1.0]hexane-3-carbonyl]-2-methyl-butyl]-2,2-difluoro-acetamide]	10	59	21	7
CC[C@H](C)[C@H](NC(=O)C(C)(C)C)C(=O)N1C[C@H]2[C@@H]([C@H]1C(=O)NN(C[C@@H]1CCNC1=O)C(=O)[C@H](F)Cl)C2(C)C [Example 52, N-[(1S,2S)-1-[(1R,2S,5S)-2-[[[(2R)-2-chloro-2-fluoro-acetyl]-[[(3S)-2-oxopyrrolidin-3-yl]methyl]amino]carbamoyl]-6,6-dimethyl-3-azabicyclo[3.1.0]hexane-3-carbonyl]-2-methyl-butyl]-2,2-dimethyl-propanamide]	15	57	22	10
CC[C@H](C)[C@H](NC(=O)C(C)C)C(=O)N1C[C@H]2[C@@H]([C@H]1C(=O)NN(C[C@@H]1CCNC1=O)C(=O)[C@H](F)Cl)C2(C)C [Example 54, N-[(1S,2S)-1-[(1R,2S,5S)-2-[[[(2R)-2-chloro-2-fluoro-acetyl]-[[(3S)-2-oxopyrrolidin-3-yl]methyl]amino]carbamoyl]-6,6-dimethyl-3-azabicyclo[3.1.0]hexane-3-carbonyl]-2-methyl-butyl]-2-methyl-propanamide]	12	56	24	9
CC[C@H](C)[C@H](NC(=O)C(C)(F)F)C(=O)N1C[C@H]2[C@@H]([C@H]1C(=O)NN(C[C@@H]1CCNC1=O)C(=O)[C@H](F)Cl)C2(C)C [Example 55, N-[(1S,2S)-1-[(1R,2S,5S)-2-[[[(2R)-2-chloro-2-fluoro-acetyl]-[[(3S)-2-oxopyrrolidin-3-yl]methyl]amino]carbamoyl]-6,6-dimethyl-3-azabicyclo[3.1.0]hexane-3-carbonyl]-2-methyl-butyl]-2,2-difluoro-propanamide]	14	56	21	8
CC[C@H](C)[C@H](NC(=O)C1CC1)C(=O)N1C[C@H]2[C@@H]([C@H]1C(=O)NN(C[C@@H]1CCNC1=O)C(=O)[C@H](F)Cl)C2(C)C [Example 57, N-[(1S,2S)-1-[(1R,2S,5S)-2-[[[(2R)-2-chloro-2-fluoro-acetyl]-[[(3S)-2-oxopyrrolidin-3-yl]methyl]amino]carbamoyl]-6,6-dimethyl-3-azabicyclo[3.1.0]hexane-3-carbonyl]-2-methyl-butyl]cyclopropanecarboxamide]	13	62	20	11
CC[C@H](C)[C@H](NC(=O)C1CC(F)(F)C1)C(=O)N1C[C@H]2[C@@H]([C@H]1C(=O)NN(C[C@@H]1CCNC1=O)C(=O)[C@H](F)Cl)C2(C)C [Example 58, N-[(1S,2S)-1-[(1R,2S,5S)-2-[[[(2R)-2-chloro-2-fluoro-acetyl]-[[(3S)-2-oxopyrrolidin-3-yl]methyl]amino]carbamoyl]-6,6-dimethyl-3-azabicyclo[3.1.0]hexane-3-carbonyl]-2-methyl-butyl]-3,3-difluoro-cyclobutanecarboxamide]	15	73	26	11
CC[C@H](C)[C@H](NC(=O)C1(F)CC1)C(=O)N1C[C@H]2[C@@H]([C@H]1C(=O)NN(C[C@@H]1CCNC1=O)C(=O)[C@H](F)Cl)C2(C)C [Example 59, N-[(1S,2S)-1-[(1R,2S,5S)-2-[[[(2R)-2-chloro-2-fluoro-acetyl]-[[(3S)-2-oxopyrrolidin-3-yl]methyl]amino]carbamoyl]-6,6-dimethyl-3-azabicyclo[3.1.0]hexane-3-carbonyl]-2-methyl-butyl]-1-fluoro-cyclopropanecarboxamide]	17	62	21	7
CC[C@H](C)[C@H](NC(=O)C1(C)CC1)C(=O)N1C[C@H]2[C@@H]([C@H]1C(=O)NN(C[C@@H]1CCNC1=O)C(=O)[C@H](F)Cl)C2(C)C [Example 60, N-[(1S,2S)-1-[(1R,2S,5S)-2-[[[(2R)-2-chloro-2-fluoro-acetyl]-[[(3S)-2-oxopyrrolidin-3-yl]methyl]amino]carbamoyl]-6,6-dimethyl-3-azabicyclo[3.1.0]hexane-3-carbonyl]-2-methyl-butyl]-1-methyl-cyclopropanecarboxamide]	9	47	19	10
CC[C@H](C)[C@H](NC(=O)C(Cl)Cl)C(=O)N1C[C@H]2[C@@H]([C@H]1C(=O)NN(C[C@@H]1CCNC1=O)C(=O)[C@H](F)Cl)C2(C)C [Example 61, 2,2-dichloro-N-[(1S,2S)-1-[(1R,2S,5S)-2-[[[(2R)-2-chloro-2-fluoro-acetyl]-[[(3S)-2-oxopyrrolidin-3-yl]methyl]amino]carbamoyl]-6,6-dimethyl-3-azabicyclo[3.1.0]hexane-3-carbonyl]-2-methyl-butyl]acetamide]	11	121	30	8

— patent US20250059171A1 (Hoffmann-La Roche Inc., priority 2021, published 2025)
